Data reported in the NIST ThermoML archive (doi:10.1016/j.tca.2009.01.008).

Assays:
[1] = molar heat capacity at constant pressure; settings: 101.33 kPa, Liquid, Vacuum adiabatic calorimetry
[2] = molar heat capacity at constant pressure; xn = mol fraction of the nth substance listed; settings: 101 kPa, Liquid, Vacuum adiabatic calorimetry

CC(O)CO (centres undefined) [1,2-propanediol]
[1]
Settings | molar heat capacity at constant pressure [J/K/mol]
303.15 K | 192.8
313.15 K | 197
323.15 K | 201.3
333.15 K | 206
343.15 K | 210.6
353.15 K | 215.3

CC(O)CO (centres undefined) [1,2-propanediol] + O
molar heat capacity at constant pressure [J/K/mol], [2]
Settings | 303.15 K | 313.15 K | 323.15 K | 333.15 K | 343.15 K | 353.15 K
x1 = 0.2 | 101.9 | 103 | 104.3 | 105.8 | 107.2 | 108.8
x1 = 0.4 | 127 | 129.4 | 132.1 | 134.9 | 137.7 | 140.7
x1 = 0.5 | 138.9 | 141.9 | 145.1 | 148.7 | 152.1 | 155.6
x1 = 0.6 | 150.3 | 153.9 | 157.7 | 161.8 | 165.8 | 169.9
x1 = 0.8 | 172.1 | 176.4 | 180.9 | 185.8 | 190.6 | 195.5

OCCCOCCCO [4-oxa-1,7-heptanediol]
[1]
Settings | molar heat capacity at constant pressure [J/K/mol]
303.15 K | 329
313.15 K | 335.3
323.15 K | 341.5
333.15 K | 348.8
343.15 K | 355.8
353.15 K | 363.8

OCCCOCCCO [4-oxa-1,7-heptanediol] + O
molar heat capacity at constant pressure [J/K/mol], [2]
Settings | 303.15 K | 313.15 K | 323.15 K | 333.15 K | 343.15 K | 353.15 K
x1 = 0.2 | 129.1 | 130.8 | 132.7 | 135 | 137.1 | 139.5
x1 = 0.4 | 181.8 | 184.9 | 188.2 | 191.9 | 195.5 | 199.6
x1 = 0.5 | 207.2 | 210.9 | 214.7 | 219.3 | 223.5 | 228.3
x1 = 0.6 | 231.9 | 236.2 | 240.7 | 245.8 | 250.8 | 256.3
x1 = 0.8 | 279.7 | 285 | 290.4 | 296.6 | 302.7 | 309.4

OCCOCCO [diethylene glycol]
[1]
Settings | molar heat capacity at constant pressure [J/K/mol]
303.15 K | 248.2
313.15 K | 251.3
323.15 K | 255
333.15 K | 259.2
343.15 K | 263.8
353.15 K | 266.8

OCCOCCO [diethylene glycol] + O
molar heat capacity at constant pressure [J/K/mol], [2]
Settings | 303.15 K | 313.15 K | 323.15 K | 333.15 K | 343.15 K | 353.15 K
x1 = 0.2 | 111.8 | 113.5 | 115.3 | 117.4 | 119.3 | 121.7
x1 = 0.4 | 148.7 | 150.7 | 153.3 | 155.9 | 158.7 | 161.8
x1 = 0.5 | 167.6 | 169.9 | 172.6 | 175.5 | 178.7 | 182.2
x1 = 0.6 | 184.5 | 187.1 | 190.3 | 193.6 | 197.3 | 201.2
x1 = 0.8 | 217.9 | 221.2 | 225 | 229.1 | 233.6 | 238.5

OCCOCCOCCO [triethylene glycol]
[1]
Settings | molar heat capacity at constant pressure [J/K/mol]
303.15 K | 336.3
313.15 K | 339.5
323.15 K | 343.1
333.15 K | 347.9
343.15 K | 353.7
353.15 K | 359.3

OCCOCCOCCO [triethylene glycol] + O
molar heat capacity at constant pressure [J/K/mol], [2]
Settings | 303.15 K | 313.15 K | 323.15 K | 333.15 K | 343.15 K | 353.15 K
x1 = 0.2 | 129.3 | 131 | 132.9 | 135.1 | 137.2 | 139.7
x1 = 0.4 | 184.1 | 186.3 | 189 | 192.1 | 195.2 | 198.7
x1 = 0.5 | 211.3 | 213.6 | 216.5 | 219.8 | 223.4 | 227.3
x1 = 0.6 | 237.8 | 240.5 | 243.7 | 249.7 | 251.8 | 256.1
x1 = 0.8 | 288.3 | 291.8 | 295.7 | 300.3 | 306 | 311.3
